According to patent EP4745134A1 (Jiangsu Yahong Meditech Co., Ltd., priority 2023, dated 2025):

What was measured:
PRMT5-MTA = PRMT5-MTA (Homo sapiens, UniProt O14744); test: Enzymatic inhibitory activity against PRMT5-MTA (AlphaScreen); assay type: biochemical; details: read-out: IC50
Method in brief: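 PRMT5/[…] (1 nM) was preincubated for 30 min at room temperature with 1 µM […] and 2.5 µM SAM, then exposed to compound (10-point, 3-fold from 1000 nM) for 15 min at 23 °C. Histone H4 substrate (5 nM) was added and reacted for 45 min at 23 °C. Symmetric dimethyl-R3 H4 was detected by AlphaScreen and IC50 calculated.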

HCT116-WT cells = test: Inhibitory activity against cell proliferation (CellTiter Glo, 6 days), HCT116-WT; assay type: cell-based; details: 144 h, HCT116-WT cells, 6 days, CellTiter Glo; read-out: HCT116-WT IC50
Method in brief: (§1)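 Luminescence read-out (CellTiter Glo, 10 min shaking at room temperature) after 6 days of compound exposure; IC50 fitted against DMSO controls. Top dose 10000 nM, 4-fold steps, 8 points; 250 cells/well in McCoy's 5A + 10% FBS.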

HCT116 MTAP KO cells = test: Inhibitory activity against cell proliferation (CellTiter Glo, 6 days), HCT116 MTAP KO; assay type: cell-based; details: for IC50: Homo sapiens, HCT-116, 144 h, HCT116 MTAP KO cells, 6 days, CellTiter Glo, read-out: HCT116 MTAP KO IC50; for Selectivity HCT 116-WT/ HCT116 MTAP KO: ratio of IC50 HCT116-WT / HCT116 MTAP KO
Method in brief: as §1

PRMT5-MTA, sequence (O14744 whole entry): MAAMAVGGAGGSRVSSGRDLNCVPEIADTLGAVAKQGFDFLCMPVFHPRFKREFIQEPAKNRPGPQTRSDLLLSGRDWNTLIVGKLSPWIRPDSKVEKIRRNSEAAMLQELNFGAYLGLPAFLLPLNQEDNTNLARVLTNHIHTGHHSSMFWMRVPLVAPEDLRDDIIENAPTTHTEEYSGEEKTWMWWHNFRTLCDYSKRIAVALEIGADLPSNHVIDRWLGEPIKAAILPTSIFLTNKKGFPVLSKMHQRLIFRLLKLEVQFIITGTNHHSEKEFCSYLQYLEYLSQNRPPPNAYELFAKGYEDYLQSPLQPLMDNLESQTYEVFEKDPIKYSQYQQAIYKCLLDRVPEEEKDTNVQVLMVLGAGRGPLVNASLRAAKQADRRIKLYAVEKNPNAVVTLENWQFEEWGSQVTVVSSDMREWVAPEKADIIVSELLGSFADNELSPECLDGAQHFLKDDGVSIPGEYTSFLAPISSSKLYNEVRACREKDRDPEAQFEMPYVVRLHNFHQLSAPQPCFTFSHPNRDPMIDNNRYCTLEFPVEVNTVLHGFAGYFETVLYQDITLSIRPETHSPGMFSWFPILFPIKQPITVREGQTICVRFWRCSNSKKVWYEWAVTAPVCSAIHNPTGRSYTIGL
PRMT5-MTA, sequence (Q9BQA1 whole entry partner): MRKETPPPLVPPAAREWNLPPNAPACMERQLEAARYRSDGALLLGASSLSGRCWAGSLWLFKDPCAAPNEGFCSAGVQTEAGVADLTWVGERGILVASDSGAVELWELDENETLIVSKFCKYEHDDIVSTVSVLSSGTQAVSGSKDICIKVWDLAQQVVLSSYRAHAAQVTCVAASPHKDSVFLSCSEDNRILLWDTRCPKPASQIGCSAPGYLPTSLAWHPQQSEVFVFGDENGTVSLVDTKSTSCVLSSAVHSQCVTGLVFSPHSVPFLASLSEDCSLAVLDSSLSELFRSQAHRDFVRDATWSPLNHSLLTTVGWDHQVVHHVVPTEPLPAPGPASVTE

Row | Structure (SMILES) | IC50 (PRMT5-MTA) [nM] | IC50 (HCT116-WT cells) [nM] | IC50 (HCT116 MTAP KO cells) [nM] | Selectivity HCT 116-WT/ HCT116 MTAP KO (HCT116 MTAP KO cells)
1 | Cc1cc2nc(N)c3cnn(C)c3c2cc1C(=O)N1CC(C)CN1c1cccc(F)n1 (centres unmarked) [Example 360, (4-amino-1,7-dimethyl-1H-pyrazolo[4,3-c]quinolin-8-yl)(2-(6-fluoropyridin-2-yl)-4-methylpyrazolidin-1-yl)methanone] | 5.2 | 1170 | 23 | 50.74
2 | Cc1cc2cc(C(=O)N(Cc3ccc(-c4ccc(N5CCOCC5)nc4)cn3)N(C)c3ncccn3)ccc2nc1N [Example 176, 2-amino-N',3-dimethyl-N-((6'-morpholinyl-[3,3'-bipyridine]-6-yl)methyl)-N'-(pyrimidin-2-yl)quinoline-6-carbohydrazide] | 2 | 997 | 57 | 17.49
3 | CCC1CN(C(=O)c2cc3c(cc2C)nc(N)c2cnn(C)c23)N(c2ncccc2F)C1 (centres unmarked) [Example 415, (4-amino-1,7-dimethyl-1H-pyrazolo[4,3-c]quinolin-8-yl)(4-ethyl-2-(3-fluoropyridin-2-yl)pyrazolidin-1-yl)methanone] | 2.6 | 810 | 19 | 42.63
4 | Cc1nc(C)c(-c2ccc(CN(C(=O)c3ccc4nc(N)c(C)cc4c3)N(c3ncccn3)C3CC3)nc2)s1 [Example 158, 2-amino-N'-cyclopropyl-N-((5-(2,4-dimethylthiazol-5-yl)pyridin-2-yl)methyl)-3-m ethyl-N'-(pyrimidin-2-yl)quinoline-6-carb ohydrazide] | 4.5 | 225 | 12 | 18.75
5 | Cc1cc2cc(C(=O)N(Cc3ccc(-c4ccoc4)cn3)N(C)c3ncccn3)ccc2nc1N [Example 156, 2-amino-N-((5-(furan-3-yl)pyridin-2-yl)methyl)-N',3-dimethyl-N'-(pyrimidin-2-yl)quinoline-6-carbohydrazide] | 1.8 | 1540 | 76 | 20.26
6 | Cc1cc2cc(C(=O)N(Cc3ccc(C(F)(F)F)cn3)N(C)c3ncc(Br)cn3)ccc2nc1N [Example 50, 2-amino-N'-(5-bromopyrimidin-2-yl)-N', 3-dimethyl-N-((5-(trifluoromethyl)pyridin-2-yl)methyl)quinoline-6-carbohydrazide] | 2.1 | 3800 | 219 | 17.33
7 | Cc1cc2cc(C(=O)N(Cc3ccc(C(F)(F)F)cn3)N(C)c3ncc4c(ccn4C)n3)ccc2nc1N [Compound 127, 2-amino-N',3-dimethyl-N'-(5-methyl-5H-pyrrolo[3,2-d]pyrimidin-2-yl)-N-((5-(trifluoromethyl)pyridin-2-yl)methyl)quinoline-6-carbohydrazide] | 4.9 | 1900 | 115 | 16.55
8 | Cc1cc2cc(C(=O)N(Cc3ccc(-c4ccc(C(F)(F)F)nc4)cn3)N(C)c3ncccn3)ccc2nc1N [Example 154, 2-amino-N',3-dimethyl-N'-(pyrimidin-2-y 1)-N-((6'-(trifluoromethyl)-[3,3'-bipyridine]-6-yl)methyl)quinoline-6-carbohydrazide] | 1.6 | 833 | 60 | 13.88
9 | Cc1cc2cc(C(=O)N(Cc3ccc(C(F)F)cn3)N(C)c3ncccn3)ccc2nc1N [Example 273, 2-amino-N-((5-(difluoromethyl)pyridin-2-yl)methyl)-N',3-dimethyl-N'-(pyrimidin-2-yl)quinoline-6-carbohydrazide] | 2.8 | 2280 | 78 | 29.27
10 | [2H]C([2H])([2H])c1cc2cc(C(=O)N(Cc3ccc(C(F)(F)F)cn3)N(C)c3nccc4nccnc34)ccc2nc1N [Example 313, 2-amino-N'-methyl-3-(methyl-d3)-N'-(pyrido[3,4-b]pyrazin-5-yl)-N-((5-(trifluoromethyl)pyridin-2-yl)methyl)quinoline-6-c arbohydrazide] | 4.2 | 508 | 38 | 13.37
11 | Cc1cc2cc(C(=O)N(Cc3ncc(-c4cccnc4)cc3F)N(C)c3ncccn3)ccc2nc1N [Example 222, 2-amino-N-((5-fluoro-[3,3'-bipyridine]-6-yl)methyl)-N',3-dimethyl-N'-(pyrimidin-2-yl)quinoline-6-carbohydrazide] | 1.4 | 328 | 20 | 16.40
12 | Cc1cc2nc(N)c3cnn(C)c3c2cc1C(=O)N1CC(C)CN1c1cc(F)ccn1 (centres unmarked) [Example 372, (4-amino-1,7-dimethyl-1H-pyrazolo[4,3-c]quinolin-8-yl)(2-(4-fluoropyridin-2-yl)-4-methylpyrazolidin-1-yl)methanone] | 3.4 | 2520 | 83 | 30.42
13 | Cc1cc2nc(N)c3cnn(C)c3c2cc1C(=O)N1CC(C)CN1c1ncncc1F (centres unmarked) [Example 395, (4-amino-1,7-dimethyl-1H-pyrazolo[4,3-c]quinolin-8-yl)(2-(5-fluoropyrimidin-4-yl)-4-methylpyrazolidin-1-yl)methanone] | 4.9 | 2710 | 66 | 41.05
14 | Cc1ncc(-c2ccc(CN(C(=O)c3ccc4nc(N)c(C)cc4c3)N(C)c3ncccn3)nc2)cn1 [Example 180, 2-amino-N',3-dimethyl-N-((5-(2-methylpyrimidin-5-yl)pyridin-2-yl)methyl)-N'-(pyrimidin-2-yl)quinoline-6-carbohydrazide] | 3.2 | 1880 | 41 | 45.73
15 | Cc1cc2cc(C(=O)N(Cc3ccc(C(F)(F)F)cn3)N(C)c3ncc(C(F)(F)F)cc3F)ccc2nc1N [Example 102, 2-amino-N'-(3-fluoro-5-(trifluoromethyl)pyridin-2-yl)-N',3-dimethyl-N-((5-(trifluoromethyl)pyridin-2-yl)methyl)quinoline-6-carbohydrazide] | 1.7 | 3550 | 348 | 10.19
16 | Cc1cc2cc(C(=O)N(Cc3cc4ccccc4cn3)N(C)c3ncccn3)ccc2nc1N [Example 104, 2-amino-N-(isoquinolin-3-ylmethyl)-N',3-dimethyl-N'-(pyrimidin-2-yl)quinoline-6-carbohydrazide] | 3.4 | 1540 | 67 | 22.94
17 | Cc1cc2cc(C(=O)N(Cc3ccc(N4CC(F)(F)C4)cn3)N(C)c3ncccn3)ccc2nc1N [Compound 225, 2-amino-N-((5-(3,3-difluoroazetidin-1-yl)pyridin-2-yl)methyl)-N',3-dimethyl-N'-(pyrimidin-2-yl)quinoline-6-carbohydrazide] | 16 | 2650 | 204 | 13.00
18 | Cc1cc2cc(C(=O)N(Cc3ccc(C4=CCCOC4)cn3)N(C)c3ncccn3)ccc2nc1N [Example 187, 2-amino-N-((5-(5,6-dihydro-2H-pyran-3-yl)pyridin-2-yl)methyl)-N',3-dimethyl-N' -(pyrimidin-2-yl)quinoline-6-carbohydrazide] | 2.3 | 788 | 33 | 23.88
19 | Cc1cc2nc(N)c3cnn(C)c3c2cc1C(=O)N1CC(C)CN1c1c(F)cccc1F (centres unmarked) [Example 400, (4-amino-1,7-dimethyl-1H-pyrazolo[4,3-c]quinolin-8-yl)(2-(2,6-difluorophenyl)-4-methylpyrazolidin-1-yl)methanone] | 5.8 | 1870 | 33 | 56.79
20 | Cc1cc2cc(C(=O)N(Cc3ccc(C(F)(F)F)cn3)Nc3ncccn3)ccc2nc1N [Example 59, 2-amino-3-methyl-N'-(pyrimidin-2-yl)-N-((5-(trifluoromethyl)pyridin-2-yl)methyl) quinoline-6-carbohydrazide] | 2 | 4220 | 257 | 16.43
21 | Cc1cc2cc(C(=O)N(Cc3ccc(C(C)(F)F)cn3)N(C)c3ncccn3)ccc2nc1N [Example 291, 2-amino-N-((5-(1,1-difluoroethyl)pyridin-2-yl)methyl)-N',3-dimethyl-N'-(pyrimidin-2-yl)quinoline-6-carbohydrazide] | 3.9 | 1050 | 39 | 26.90
22 | Cc1ccnc(N(C)N(Cc2ccc(C(F)(F)F)cn2)C(=O)c2ccc3nc(N)c(C)cc3c2)n1 [Example 49, 2-amino-N',3-dimethyl-N'-(4-methylpyrimidin-2-yl)-N-((5-(trifluoromethyl)pyridin-2-yl)methyl)quinoline-6-carbohydrazide] | 2.2 | 1770 | 80 | 22.18
23 | Cc1cc2nc(N)c3cnn(C)c3c2cc1C(=O)N1CC(C)CN1c1ncc(-c2nncs2)cc1F (centres unmarked) [Example 487, (4-amino-1,7-dimethyl-1H-pyrazolo[4,3-c]quinolin-8-yl)(2-(3-fluoro-5-(1,3,4-thiadiazol-2-yl)pyridin-2-yl)-4-methylpyrazolidin-1-yl)methanone] | 6.7 | 2350 | 58 | 40.52
